From the supplement of paper PMC10307832

Key:
Test in all cases: relative viability (nuclei count vs DMSO), 5 days (fraction); higher = more cells survive
CAP-232 + Bortezomib = compound: C[C@H]([C@@H](C(=O)N)NC(=O)[C@@H]1CSSC[C@@H](C(=O)N[C@H](C(=O)N[C@@H](C(=O)N[C@H](C(=O)N1)CCCCN)CC2=CNC3=CC=CC=C32)CC4=CC=C(C=C4)O)NC(=O)[C@@H](CC5=CC=CC=C5)N)O [CAP-232] + CC(C)C[C@H](NC(=O)[C@H](Cc1ccccc1)NC(=O)c1cnccn1)B(O)O [Bortezomib] (partner 0.002 µM)
How it was run: (§1)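 Values are medians from duplicate plates. Each reflects relative viability, defined as the nuclei count of treated wells over that of vehicle wells. Lung cancer cell lines in 1536-well plates were pin-tool dosed one day after seeding with one drug alone or with a fixed anchor-drug dose plus five library-drug doses (not always all listed) in √10 steps, then fixed, stained and imaged at 4× after 5 days.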

CAP-232 + Luminespib = compound: C[C@H]([C@@H](C(=O)N)NC(=O)[C@@H]1CSSC[C@@H](C(=O)N[C@H](C(=O)N[C@@H](C(=O)N[C@H](C(=O)N1)CCCCN)CC2=CNC3=CC=CC=C32)CC4=CC=C(C=C4)O)NC(=O)[C@@H](CC5=CC=CC=C5)N)O [CAP-232] + CCNC(=O)c1noc(-c2cc(C(C)C)c(O)cc2O)c1-c1ccc(CN2CCOCC2)cc1 [Luminespib] (partner 0.01 µM)
How it was run: as §1

CAP-232 + Tozasertib = compound: C[C@H]([C@@H](C(=O)N)NC(=O)[C@@H]1CSSC[C@@H](C(=O)N[C@H](C(=O)N[C@@H](C(=O)N[C@H](C(=O)N1)CCCCN)CC2=CNC3=CC=CC=C32)CC4=CC=C(C=C4)O)NC(=O)[C@@H](CC5=CC=CC=C5)N)O [CAP-232] + Cc1cc(Nc2cc(N3CCN(C)CC3)nc(Sc3ccc(NC(=O)C4CC4)cc3)n2)n[nH]1 [Tozasertib] (partner 0.1 µM)
How it was run: as §1

CAP-232 + Vorinostat = compound: C[C@H]([C@@H](C(=O)N)NC(=O)[C@@H]1CSSC[C@@H](C(=O)N[C@H](C(=O)N[C@@H](C(=O)N[C@H](C(=O)N1)CCCCN)CC2=CNC3=CC=CC=C32)CC4=CC=C(C=C4)O)NC(=O)[C@@H](CC5=CC=CC=C5)N)O [CAP-232] + O=C(CCCCCCC(=O)Nc1ccccc1)NO [Vorinostat] (partner 1 µM)
How it was run: as §1

CAP-232 + Foretinib = compound: C[C@H]([C@@H](C(=O)N)NC(=O)[C@@H]1CSSC[C@@H](C(=O)N[C@H](C(=O)N[C@@H](C(=O)N[C@H](C(=O)N1)CCCCN)CC2=CNC3=CC=CC=C32)CC4=CC=C(C=C4)O)NC(=O)[C@@H](CC5=CC=CC=C5)N)O [CAP-232] + COc1cc2c(Oc3ccc(NC(=O)C4(C(=O)Nc5ccc(F)cc5)CC4)cc3F)ccnc2cc1OCCCN1CCOCC1 [Foretinib] (partner 0.25 µM)
How it was run: as §1

Cell Line | relative viability (CAP-232 + Bortezomib; first compound 0.4 µM) | relative viability (CAP-232 + Bortezomib; first compound 1.265 µM) | relative viability (CAP-232 + Bortezomib; first compound 4 µM) | relative viability (CAP-232 + Bortezomib; first compound 12.65 µM) | relative viability (CAP-232 + Luminespib; first compound 0.4 µM) | relative viability (CAP-232 + Luminespib; first compound 1.265 µM) | relative viability (CAP-232 + Luminespib; first compound 4 µM) | relative viability (CAP-232 + Luminespib; first compound 12.65 µM) | relative viability (CAP-232 + Tozasertib; first compound 0.4 µM) | relative viability (CAP-232 + Tozasertib; first compound 1.265 µM) | relative viability (CAP-232 + Tozasertib; first compound 4 µM) | relative viability (CAP-232 + Tozasertib; first compound 12.65 µM) | relative viability (CAP-232 + Vorinostat; first compound 0.4 µM) | relative viability (CAP-232 + Vorinostat; first compound 1.265 µM) | relative viability (CAP-232 + Vorinostat; first compound 4 µM) | relative viability (CAP-232 + Vorinostat; first compound 12.65 µM) | relative viability (CAP-232 + Foretinib; first compound 0.4 µM) | relative viability (CAP-232 + Foretinib; first compound 1.265 µM) | relative viability (CAP-232 + Foretinib; first compound 4 µM) | relative viability (CAP-232 + Foretinib; first compound 12.65 µM)
HCC-44 | 1 | 0.864 | 0.948 | 0.893 | 1.35 | 1.01 | 0.759 | 1 | 0.919 | 0.95 | 1.18 | 1.09 | 1.08 | 1.08 | 1.15 | 1.13 |  |  |  | 
HCC-78 | 0.544 | 0.563 | 0.489 | 0.396 |  |  |  |  | 0.257 | 0.405 | 0.493 | 0.492 | 0.47 | 0.489 | 0.388 | 0.441 | 0.564 | 0.562 | 0.473 | 0.568
HCC-366 | 1.22 | 0.942 | 1.15 | 1 |  |  |  |  | 0.132 | 0.106 | 0.108 | 0.078 | 0.32 | 0.345 | 0.418 | 0.323 | 0.914 | 0.948 | 0.891 | 0.898
HCC-827 | 1.19 | 1.06 | 1.03 | 1 | 0.629 | 0.66 | 0.659 | 0.749 | 0.525 | 0.41 | 0.417 | 0.484 | 0.888 | 0.832 | 0.883 | 0.891 | 1.05 | 1 | 1.01 | 1.01
HOP-62 | 0.924 |  | 1.11 | 0.699 | 0.957 | 0.917 | 1.13 | 0.908 | 0.347 | 0.388 | 0.387 | 0.406 | 0.589 | 0.484 | 0.676 | 0.543 | 1.04 | 1.07 | 1.01 | 1.03
IA-LM | 0.861 | 0.656 | 0.698 | 0.236 |  |  |  |  |  |  |  |  | 0.821 | 1.01 | 0.939 | 0.822 | 1.15 | 1.14 | 1.22 | 0.386
LK-2 |  |  |  |  | 0.176 | 0.207 | 0.19 | 0.183 | 0.147 | 0.199 | 0.163 | 0.147 | 0.277 | 0.249 | 0.275 | 0.298 | 1.4 | 1.22 | 1.54 | 1.19
NCI-H358 |  |  |  |  | 0.241 | 0.289 | 0.376 | 0.352 | 0.102 | 0.115 | 0.089 | 0.0797 | 0.755 | 0.709 | 0.71 | 0.375 | 0.678 | 0.841 | 0.686 | 0.563
NCI-H522 |  |  |  |  | 1.08 | 1.11 | 1.15 | 1.3 | 0.555 | 0.58 | 0.503 | 0.544 | 0.971 | 0.9 | 0.93 | 0.867 |  |  |  | 
NCI-H1395 |  |  |  |  | 0.661 | 0.638 | 0.665 | 0.614 | 0.677 | 0.793 | 0.765 | 0.79 | 1.11 |  | 0.79 | 0.573 | 0.971 | 0.997 | 0.854 | 1.11
NCI-H1563 | 0.836 | 0.735 | 0.957 | 0.687 | 0.461 | 0.52 | 0.455 | 0.462 |  |  |  |  |  |  |  |  | 0.972 | 0.886 | 0.939 | 0.639
NCI-H1703 | 0.251 | 0.333 | 0.226 | 0.164 |  |  |  |  |  |  |  |  |  |  |  |  | 0.304 | 0.364 | 0.323 | 0.409
NCI-H1792 | 1.13 | 1.01 | 1.27 | 0.845 | 0.375 | 0.445 | 0.371 | 0.279 |  |  |  |  |  |  |  |  |  |  |  | 
NCI-H1793 |  |  |  |  | 0.199 | 0.195 | 0.451 | 0.165 | 0.375 | 0.355 | 0.486 | 0.356 | 0.947 | 0.703 | 0.728 | 0.653 | 0.678 | 0.761 | 0.639 | 0.725
NCI-H1944 |  |  |  |  | 0.709 | 0.695 | 0.78 | 0.667 | 0.245 | 0.253 | 0.27 | 0.263 | 0.614 | 0.673 | 0.559 | 0.552 | 0.849 | 0.862 | 0.906 | 0.882
NCI-H2170 |  |  |  |  | 0.777 | 0.866 | 0.674 | 0.826 | 0.852 | 0.667 | 0.615 | 0.73 | 0.823 | 0.835 | 0.886 | 0.794 | 1 | 1.04 | 1.02 | 1.05
NCI-H2342 |  |  |  |  | 0.786 | 0.765 | 0.719 | 0.699 | 0.479 | 0.459 | 0.436 | 0.437 | 0.688 | 0.647 | 0.623 | 0.742 | 0.944 | 1.03 | 0.995 | 0.995
SK-MES-1 |  |  |  |  | 0.726 | 0.889 | 0.888 | 0.531 | 0.903 | 0.893 | 0.905 | 0.774 | 1.3 | 1.13 | 1.02 | 0.489 | 0.935 | 1.04 | 0.95 | 0.771
SW 900 |  |  |  |  | 0.171 | 0.185 | 0.187 | 0.169 | 0.658 | 0.593 | 0.583 | 0.582 | 0.727 | 0.453 | 0.432 | 0.429 | 0.819 | 0.816 | 0.96 | 0.858
